The results in this text go back to patent US5750700A, “Certain 1-substituted aminomethyl imidazole and pyrrole derivatives: novel dopamine receptor subtype specific ligands” (Neurogen Corporation, priority 1995, dated 1998).

Structures can show the parent of a compound that is named as a salt.

By Ki is commonly meant a dissociation constant, usually derived from enzyme kinetics or from competition with a known ligand. A high value points to weaker binding. For orientation: IC50 means the concentration needed to halve the response being measured.

For the first assay, the target named is T1, human dopamine D4 receptor subtype (Homo sapiens, UniProt P21917).
T1 construct: expressed in transfected cells
T1 sequence (P21917 1-419): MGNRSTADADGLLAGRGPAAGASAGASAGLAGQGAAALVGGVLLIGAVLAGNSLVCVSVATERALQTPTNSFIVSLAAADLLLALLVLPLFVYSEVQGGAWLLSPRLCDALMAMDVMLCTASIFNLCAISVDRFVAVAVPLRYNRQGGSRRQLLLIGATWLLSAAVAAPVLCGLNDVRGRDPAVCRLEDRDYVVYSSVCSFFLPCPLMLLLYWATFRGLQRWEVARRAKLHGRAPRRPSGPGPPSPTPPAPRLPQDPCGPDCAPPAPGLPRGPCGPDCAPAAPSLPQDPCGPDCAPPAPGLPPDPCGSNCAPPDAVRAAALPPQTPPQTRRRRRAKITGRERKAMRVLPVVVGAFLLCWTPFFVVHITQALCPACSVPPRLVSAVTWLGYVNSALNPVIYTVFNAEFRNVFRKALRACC
Nature of the assay: D4 receptor binding activity: displacement of [3H] YM-09151-2. Conditions: 0.1 nM [3H] YM-09151-2; 60 minutes at 25° C.; clonal cell lines expressing human D4. The procedure: Assay for D4 Receptor Binding Activity
Clonal cell lines expressing the human dopamine D4 receptor subtype were harvested in PBS and the cells centrifuged and the pellets stored at -80° C. until used in the binding assay. The pellets were resuspended and the cells lysed at 4° C. in 50 mM Tris pH 7.4 buffer containing 120 mM NaCl, 2 mM EDTA and 5 mM mMgCl2. The homogenate is centrifuged at 48000×g for 10 minutes at 4° C. The resulting pellet is resuspended in fresh buffer and centrifuged again. After resuspension of the pellet in fresh buffer at 100 ul aliquot removed for the protein determination. The remaining homogenate is centrifuged as above, the supernatant removed and the pellet stored at 4° C. until needed at which time it is resuspended to a final concentration of 625 ug/ml (250 ug per sample) with 50 mM Tris buffer (pH 7.4) and 120 mM NaCl just prior to use. Incubations were carried out for 60 minutes at 25° C. in the presence of 0.1 nM [^3 H] YM-09151-2. The incubation was terminated by rapid filtration through Whatman GF/C filters and rinsed with 2×4 ml washes of chilled 50 mM Tris (pH 7.4) and 120 mM NaCl. Nonspecific binding was determined with 1 uM spiperone and radioactivity determined by counting in an LKB beta counter. Binding parameters were determined by non-linear least squares regression analysis, from which the inhibition constant Ki could be calculated for each test compound. The binding characteristics of some examples of this patent are shown in Table 2 for the dopamine D4 binding assay. […] YM-09151-2 from the human dopamine D4 receptor subtype of below […].
(In general: Loss of bound radioactivity is the signal in a displacement assay; it reports binding, not function.)
As for `c1ccc(CC2CCN(Cc3cn(-c4ccccc4)cn3)CC2)cc1` [Compound 1, 1-phenyl-4[(4-benzyl-piperidin-1-yl)-methyl]imidazole], affinity was put at a Ki of 3 nM.
On the same count and under the same terms, to `c1ccc(N2CCN(Cc3cn(-c4ccccc4)cn3)CC2)cc1` [Compound 3, 1-Phenyl-4[(4-phenyl-piperazin-1-yl)methyl]imidazole dihydrochloride] belongs 2 nM.
Same read-out and setting: then `Fc1ccc(N2CCN(Cc3cn(-c4ccccc4)cn3)CC2)cc1` [Compound 6, 1-Phenyl-4[(4-(4-fluorophenyl)-piperazin-1-yl)methyl]imidazole dihydrochloride], with 3 nM; and `c1ccc(C2CCN(Cc3cn(-c4ccccc4)cn3)CC2)cc1` [Compound 2, 1-Phenyl-4[(4-phenyl-piperidin-1-yl)methyl]imidazole dihydrochloride], with 10 nM.

The target of another assay is D2 and D3 receptor (rat striatal homogenates). Nature of the assay: D2 and D3 receptor binding activity: displacement of 3H-raclopride in rat striatal homogenates. The settings on record: 0.5 nM 3H-raclopride, nonspecific binding 10^-4M dopamine. The arrangement: species or system adult male Sprague Dawley rats. On the procedure: Assay for D2 and D3 Receptor Binding Activity Striatial tissue is dissected from adult male Sprague Dawley rats or BHK 293 cells are harvested containing recombinantly produced D2 or D3 receptors. The sample is homogenized in 100 volumes (w/vol) of 0.05M Tris HCl buffer at 4° C. and pH 7.4. The sample is then centrifuged at 30,000×g and resuspended and rehomogenized. The sample is then centrifuged as described and the final tissue sample is frozen until use. The tissue is resuspended 1:20 (wt/vol) in 0.05M Tris HCl buffer containing 100 mM NaCl. […] The binding characteristics of examples of this patent are shown in Table 1 for Rat Striatal Homogenates.
On to `c1ccc(CC2CCN(Cc3cn(-c4ccccc4)cn3)CC2)cc1` [Compound 1, 1-phenyl-4[(4-benzyl-piperidin-1-yl)-methyl]imidazole], for which the half-inhibitory concentration (IC50) came to 142 nM.
The same measure, in the same setting: then `c1ccc(N2CCN(Cc3cn(-c4ccccc4)cn3)CC2)cc1` [Compound 3, 1-Phenyl-4[(4-phenyl-piperazin-1-yl)methyl]imidazole dihydrochloride], with 6 nM; and `Fc1ccc(N2CCN(Cc3cn(-c4ccccc4)cn3)CC2)cc1` [Compound 6, 1-Phenyl-4[(4-(4-fluorophenyl)-piperazin-1-yl)methyl]imidazole dihydrochloride], with 194 nM; and `c1ccc(C2CCN(Cc3cn(-c4ccccc4)cn3)CC2)cc1` [Compound 2, 1-Phenyl-4[(4-phenyl-piperidin-1-yl)methyl]imidazole dihydrochloride], with 3 nM.
